Earlier results, collected in patent US20050142225A1, “Stabilised pharmaceutical compositions on the basis of polyoxyethlated castor oil and method for manufacturing the same” (Pliva-Lachema A.S., priority 2003, published 2005).
Like-named read-outs stand apart in the source and are kept apart here.

In the case of `CC(=O)O[C@H]1C(=O)[C@@]2(C)[C@H]([C@H](OC(=O)c3ccccc3)[C@]3(O)C[C@H](OC(=O)[C@H](O)[C@@H](NC(=O)c4ccccc4)c4ccccc4)C(C)=C1C3(C)C)[C@]1(OC(C)=O)CO[C@@H]1C[C@@H]2O` [taxol, paclitaxel], the content of taxol (composition with Cremophor EL, without an acid (pH of 9.1), after 7 days at 40° C.) is listed as 86,7%, the content of taxol (composition with pH adjusted by acetic acid to 6.7, after 7 days) is listed as 97,5% and the content of taxol (composition with pH adjusted by citric acid to 6.2, after 7 days) is listed as 96,6%.
